Results as given in the supplement of paper PMC10307832.

Columns and labels:
Test in all cases: relative viability (nuclei count vs DMSO), 5 days (fraction); higher = more cells survive
A549 = tested on: A549
Procedure, shortened: (§1)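 Cells from lung cancer lines were seeded into 1536-well plates and, one day later, dosed by pin tool. Treatments were either a single drug or a fixed dose of an anchor drug with five library-drug doses (not always all listed) in √10 steps. After 5 days, nuclei were stained in a one-step fixation (final 0.05% Triton X-100, 1% formaldehyde, 1 ug/ml Hoechst) and counted on 4× images, and relative viability is the treated-to-vehicle nuclei ratio, as the median of duplicate plates.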

NCI-H1623 = tested on: NCI-H1623
Procedure, shortened: as §1

ABC-1 = tested on: ABC-1
Procedure, shortened: as §1

NCI-H2009 = tested on: NCI-H2009
Procedure, shortened: as §1

EMC-BAC-2 = tested on: EMC-BAC-2
Procedure, shortened: as §1

NCI-H2228 = tested on: NCI-H2228
Procedure, shortened: as §1

Calu-6 = tested on: Calu-6
Procedure, shortened: as §1

IA-LM = tested on: IA-LM
Procedure, shortened: as §1

NCI-H1299 = tested on: NCI-H1299
Procedure, shortened: as §1

EBC-1 = tested on: EBC-1
Procedure, shortened: as §1

NCI-H1703 = tested on: NCI-H1703
Procedure, shortened: as §1

`Cc1csc(=NC2CCCCC2)n1/N=C/c1ccc(O)c(O)c1O` [MIM1] + N=C(N)NC(=N)NCCc1ccccc1 [Phenformin] (partner 250 µM) gave a relative viability (A549; first compound 0.2 µM) of 0.164, a relative viability (A549; first compound 0.6325 µM) of 0.108 and a relative viability (A549; first compound 2 µM) of 0.144. For the same molecule, the relative viability (A549; first compound 6.325 µM) was 0.108, the relative viability (A549; first compound 20 µM) was 0.0481 and the relative viability (NCI-H1623; first compound 0.2 µM) was 0.561. It also gave a relative viability (NCI-H1623; first compound 0.6325 µM) of 0.428, a relative viability (NCI-H1623; first compound 2 µM) of 0.587 and a relative viability (NCI-H1623; first compound 6.325 µM) of 0.562. For the same molecule, the relative viability (NCI-H1623; first compound 20 µM) was 0.374, the relative viability (ABC-1; first compound 0.2 µM) was 0.228 and the relative viability (ABC-1; first compound 0.6325 µM) was 0.261. For the same molecule, the relative viability (ABC-1; first compound 2 µM) was 0.231, the relative viability (ABC-1; first compound 6.325 µM) was 0.201 and the relative viability (ABC-1; first compound 20 µM) was 0.189. The relative viability (NCI-H2009; first compound 0.2 µM) was 0.493, the relative viability (NCI-H2009; first compound 0.6325 µM) was 0.479 and the relative viability (NCI-H2009; first compound 2 µM) was 0.45. The relative viability (NCI-H2009; first compound 6.325 µM) was 0.309, the relative viability (NCI-H2009; first compound 20 µM) was 0.169 and the relative viability (EMC-BAC-2; first compound 0.2 µM) was 0.547. It also gave a relative viability (EMC-BAC-2; first compound 0.6325 µM) of 0.455, a relative viability (EMC-BAC-2; first compound 2 µM) of 0.515 and a relative viability (EMC-BAC-2; first compound 6.325 µM) of 0.48. It also gave a relative viability (EMC-BAC-2; first compound 20 µM) of 0.208, a relative viability (NCI-H2228; first compound 0.2 µM) of 0.389 and a relative viability (NCI-H2228; first compound 0.6325 µM) of 0.272. It also gave a relative viability (NCI-H2228; first compound 2 µM) of 0.332, a relative viability (NCI-H2228; first compound 6.325 µM) of 0.145 and a relative viability (NCI-H2228; first compound 20 µM) of 0.0959.

With `Cc1cn(-c2cc(NC(=O)c3ccc(C)c(Nc4nccc(-c5cccnc5)n4)c3)cc(C(F)(F)F)c2)cn1` [Nilotinib] + CCNC(=O)c1noc(-c2cc(C(C)C)c(O)cc2O)c1-c1ccc(CN2CCOCC2)cc1 [Luminespib] (partner 0.01 µM) the relative viability (NCI-H1623; first compound 0.001 µM) was 0.43, the relative viability (NCI-H1623; first compound 0.003162 µM) was 0.516 and the relative viability (NCI-H1623; first compound 0.01 µM) was 0.63. For the same molecule, the relative viability (NCI-H1623; first compound 0.03162 µM) was 0.498, the relative viability (NCI-H1623; first compound 0.1 µM) was 0.544 and the relative viability (ABC-1; first compound 0.001 µM) was 0.508. For the same molecule, the relative viability (ABC-1; first compound 0.003162 µM) was 0.227, the relative viability (ABC-1; first compound 0.01 µM) was 0.554 and the relative viability (ABC-1; first compound 0.03162 µM) was 1.28. It also gave a relative viability (ABC-1; first compound 0.1 µM) of 0.252, a relative viability (NCI-H2009; first compound 0.001 µM) of 0.886 and a relative viability (NCI-H2009; first compound 0.003162 µM) of 1.14. It also gave a relative viability (NCI-H2009; first compound 0.01 µM) of 1.16, a relative viability (NCI-H2009; first compound 0.03162 µM) of 0.955 and a relative viability (NCI-H2009; first compound 0.1 µM) of 1.12. It also gave a relative viability (EMC-BAC-2; first compound 0.001 µM) of 1.09, a relative viability (EMC-BAC-2; first compound 0.003162 µM) of 1.36 and a relative viability (EMC-BAC-2; first compound 0.01 µM) of 1.22. The relative viability (EMC-BAC-2; first compound 0.03162 µM) was 1.01, the relative viability (EMC-BAC-2; first compound 0.1 µM) was 1.11 and the relative viability (NCI-H2228; first compound 0.003162 µM) was 0.161. It also gave a relative viability (NCI-H2228; first compound 0.01 µM) of 0.183, a relative viability (NCI-H2228; first compound 0.03162 µM) of 0.151 and a relative viability (NCI-H2228; first compound 0.1 µM) of 0.0953.

With `Cc1cn(-c2cc(NC(=O)c3ccc(C)c(Nc4nccc(-c5cccnc5)n4)c3)cc(C(F)(F)F)c2)cn1` [Nilotinib] + COc1cc2c(Oc3ccc(NC(=O)C4(C(=O)Nc5ccc(F)cc5)CC4)cc3F)ccnc2cc1OCCCN1CCOCC1 [Foretinib] (partner 0.25 µM) the relative viability (A549; first compound 0.001 µM) was 1.03, the relative viability (A549; first compound 0.01 µM) was 1.15 and the relative viability (A549; first compound 0.1 µM) was 0.95. It also gave a relative viability (NCI-H1623; first compound 0.001 µM) of 0.789, a relative viability (NCI-H1623; first compound 0.003162 µM) of 0.815 and a relative viability (NCI-H1623; first compound 0.01 µM) of 0.873. For the same molecule, the relative viability (NCI-H1623; first compound 0.03162 µM) was 0.667, the relative viability (NCI-H1623; first compound 0.1 µM) was 0.791 and the relative viability (ABC-1; first compound 0.001 µM) was 0.963. It also gave a relative viability (ABC-1; first compound 0.003162 µM) of 1.32, a relative viability (ABC-1; first compound 0.01 µM) of 1.17 and a relative viability (ABC-1; first compound 0.03162 µM) of 0.918. It also gave a relative viability (ABC-1; first compound 0.1 µM) of 1.32, a relative viability (Calu-6; first compound 0.001 µM) of 0.726 and a relative viability (Calu-6; first compound 0.003162 µM) of 0.897. The relative viability (Calu-6; first compound 0.01 µM) was 0.934, the relative viability (Calu-6; first compound 0.03162 µM) was 0.644 and the relative viability (Calu-6; first compound 0.1 µM) was 0.801. It also gave a relative viability (IA-LM; first compound 0.001 µM) of 1.14, a relative viability (IA-LM; first compound 0.003162 µM) of 1.23 and a relative viability (IA-LM; first compound 0.01 µM) of 1.33. For the same molecule, the relative viability (IA-LM; first compound 0.1 µM) was 1.17, the relative viability (NCI-H1299; first compound 0.001 µM) was 1.11 and the relative viability (NCI-H1299; first compound 0.01 µM) was 1.17. It also gave a relative viability (NCI-H1299; first compound 0.03162 µM) of 1.19, a relative viability (NCI-H1299; first compound 0.1 µM) of 1.07 and a relative viability (NCI-H2009; first compound 0.001 µM) of 1.12. For the same molecule, the relative viability (NCI-H2009; first compound 0.003162 µM) was 1.41, the relative viability (NCI-H2009; first compound 0.01 µM) was 1.32 and the relative viability (NCI-H2009; first compound 0.03162 µM) was 1.16. It also gave a relative viability (NCI-H2009; first compound 0.1 µM) of 1.1, a relative viability (EBC-1; first compound 0.001 µM) of 0.0869 and a relative viability (EBC-1; first compound 0.003162 µM) of 0.101. The relative viability (EBC-1; first compound 0.01 µM) was 0.105, the relative viability (EBC-1; first compound 0.1 µM) was 0.112 and the relative viability (NCI-H1703; first compound 0.001 µM) was 0.337. The relative viability (NCI-H1703; first compound 0.1 µM) was 0.409, the relative viability (EMC-BAC-2; first compound 0.001 µM) was 0.963 and the relative viability (EMC-BAC-2; first compound 0.003162 µM) was 1.14. For the same molecule, the relative viability (EMC-BAC-2; first compound 0.01 µM) was 1.13, the relative viability (EMC-BAC-2; first compound 0.03162 µM) was 0.922 and the relative viability (EMC-BAC-2; first compound 0.1 µM) was 1.02. It also gave a relative viability (NCI-H2228; first compound 0.003162 µM) of 0.99, a relative viability (NCI-H2228; first compound 0.01 µM) of 1.06 and a relative viability (NCI-H2228; first compound 0.03162 µM) of 0.549. It also gave a relative viability (NCI-H2228; first compound 0.1 µM) of 0.8.
